Laboratory results published in US20040039027A1, “Benzimidazole compounds, process for producing the same and use thereof” (priority 2000, published 2004).

Test: Stability test in artificial gastric juice
Assay type: physicochemical
Conditions: artificial gastric juice with acetonitrile, pH 1.2, artificial gastric juice pH ca. 1.2 with acetonitrile, 37° C.; calculated assuming pseudo-first-order decomposition
Protocol: Stability Test in Artificial Gastric Juice
2-[[[3-Methyl-4-(2,2,2-trifluoroethoxy)-2-pyridyl]methyl]sulfinyl]-1H-benzimidazole(lansoprazole) and the compounds (ca. 1-2 mg) of Examples 1, 2 and 18 were respectively dissolved in acetonitrile (1 mL). To each solution (0.2 mL) were added acetonitrile (1 mL) and artificial gastric juice (3 mL, a solution prepared by dissolving sodium chloride (2.0 g) in hydrochloric acid (7.0 mL) and adding water to the amount of 1000 mL, pH ca. 1.2), and the stability of each compound after preservation at 37° C. was examined. Samples were taken immediately after addition of acetonitrile and artificial gastric juice, and 4, 8, 12, 16 and 20 hours thereafter, analyzed under the following HPLC analysis conditions, and the half-life was calculated on the assumption that the decomposition of the compound was a pseudo-first-order reaction. […]
detection wavelength: UV 285 nm column: YMC Pro C18 75 mm×4.6 mm I.D. mobile phase: the proportion of mobile phase A (0.01 mol/L aqueous ammonium acetate solution) and mobile phase B (acetonitrile) was changed with the lapse of time as in the following.
10 min. from immediately after addition: mobile phase A/mobile phase B=60/40→10/90 10 min. to 15 min.: mobile phase A/mobile phase B=10/90
15.1 min. to 20 min.: mobile phase A/mobile phase B=60/40 flow rate: 1.0 mL/min. column temperature: 25° C.

Row | half-life [h] | SMILES
1 | ≥ 4 | Cc1c(OCC(F)(F)F)ccnc1C[S+]([O-])c1nc2ccccc2n1COC(=O)c1ccccc1 (stereo not drawn) [Example 1, [2-[[[3-Methyl-4-(2,2,2-trifluoroethoxy)-2-pyridinyl]methyl]sulfinyl]-1H-benzimidazol-1-yl]methyl benzoate]
2 | ≥ 4 | CCCOC(=O)OCn1c([S+]([O-])Cc2nccc(OCC(F)(F)F)c2C)nc2ccccc21 (stereo not drawn) [Example 18, [2-[[[3-Methyl-4-(2,2,2-trifluoroethoxy)-2-pyridinyl]methyl]sulfinyl]-1H-benzimidazol-1-yl]methyl propyl carbonate]
3 | < 0.03 | Cc1c(OCC(F)(F)F)ccnc1C[S+]([O-])c1nc2ccccc2[nH]1 (stereo not drawn) [lansoprazole, 2-[[[3-Methyl-4-(2,2,2-trifluoroethoxy)-2-pyridyl]methyl]sulfinyl]-1H-benzimidazole, reference compound]
